We go through 14 molecules from patent publication US11542282B2, “Low affinity poly(AD-ribose) polymerase 1 dependent cytotoxic agents” (THE TRUSTEES OF THE UNIVERSITY OF PENNSYLVANIA, priority 2018, dated 2023).

Assay [1] relates to MEF PARP-2 (-/-) KO cells. Description: Cell viability assay in MEF PARP-2 KO-/- cells. Type of assay: cell-based, mouse. The following applies: Mus musculus, NA = Not applicable, no cell death observed. As for the experimental part:
(§1) Genetically engineered PARP-1 and PARP-2 double knockout mouse embryonic fibroblast (MEF) were used for cell viability studies with wildtype control.
(§2) Cell viability assays were carried out using four cell lines including OVCAR8, MEF wt, MEF PARP-1 (−/−) KO, and MEF PARP-2 (−/−) KO as described in Makvandi cited above. Briefly, cells were seeded in black wall clear bottom 96-well plates at concentrations of 1,000 cells/well. […] Plates were read on an Enspire multimode plate reader (Perkin Elmer). Data was normalized to percent survival at each concentration evaluated by diving the luminescent signal in treated wells vs. the average of vehicle controls. Experiments were repeated three times and all compounds were assayed during each experiment.
(§3) This isogenic model was selected due to the highly conserved nature of the PARP catalytic domain, all-owing investigation in enzyme specificity.
The cell cytotoxicity profile of these selected compounds in MEF PARP-2 KO−/− cell lines was then analyzed as described above.

For the next assay, the target named is PARP-1 (Homo sapiens, UniProt P09874). Description: PARP-1 radioligand binding in live OVCAR8 cells ([125I]KX1 competition). The following applies: for IC50: radioligand binding in OVCAR8 cells. As for the experimental part: (§4) Cells were cultured using standard techniques at 37° C. with 5% CO2 and 15% 02. […] Genetically engineered PARP-1 and PARP-2 double knockout mouse embryonic fibroblast (MEF) were used for cell viability studies with wildtype control. All cells were cultured in RPMI 1640 with 10% FBS and 1% penicillin/streptomycin.
The affinity of each compound for the PARP-1 enzyme was evaluated using a radioligand binding method described in Makvandi, A radiotracer strategy to quantify PARP-1 expression in vivo provides a biomarker that can enable patient selection for PARP inhibitor therapy. Cancer Research 2016. Briefly, OVCAR8 ovarian cancer cells were seeded in 96-well Stripwell plates at a density of 40,000 cells/well 24 hrs prior to the study. On the day of study, compounds were diluted in RPMI to concentrations of 100 μM-0.064 nM. […] Reactions were allowed to equilibrate for 1 hr and were then washed with 200 μL of PBS. Wells were separated and counted on an automatic Wizard gamma counter (Perkin Elmer, Waltham Mass.). […] Experiments were repeated three times with adjusting dose concentrations to increase accuracy of IC50 values.
Compounds 10-17 were evaluated for PARP-1 inhibition using a radioligand binding assay protocol with BRCA1 methylated ovarian cancer cells (OVCAR8) as described above. See, Table 3. […] Compared to 1a, oxaazaspiro analogue 1b performed slightly better with scaffold 10b displaying a PARP-1 binding value of 24.9 nM.

The next assay deals with MEF WT cells. Description: Cell viability assay in MEF WT cells. Format: cell-based, mouse. The following applies: NA = Not applicable, no cell death observed. As for the experimental part:
as §1, §2, §3

For assay [2], the system named is MEF PARP-1 (-/-) KO cells. Description: Cell viability assay in MEF PARP-1 KO-/- cells. Format: cell-based. The following applies: Mus musculus, NA = Not applicable, no cell death observed. As for the experimental part:
as §1, §2, §3
Enzyme dependency of selected compounds in MEF PARP-1 KO−/− cells (FIG. 2B) was performed as described above in order to identify if these analogues act through other cellular targets.

A further assay has as its system OVCAR8 cells. Description: Cell viability / cytotoxicity assay in OVCAR8 cells (CellTiter Glo). Type of assay: cell-based. The following applies: Homo sapiens, OVCAR-8, Table 4. How it is done: as §4
Cell viability assays were carried out using four cell lines including OVCAR8, MEF wt, MEF PARP-1 (−/−) KO, and MEF PARP-2 (−/−) KO as described in Makvandi cited above. Briefly, cells were seeded in black wall clear bottom 96-well plates at concentrations of 1,000 cells/well. After 24 h, cells were then treated with concentrations from 100-0.016 μM. Cells were incubated with compounds for 4-7 days and then assayed for cell viability using the luminescent based assay, CellTiter Glo (Promega, Waltham Mass.). Plates were read on an Enspire multimode plate reader (Perkin Elmer). Data was normalized to percent survival at each concentration evaluated by diving the luminescent signal in treated wells vs. the average of vehicle controls. Experiments were repeated three times and all compounds were assayed during each experiment.
Cytotoxicity was then examined in OVCAR8 cells at 1, 10 and 100 μm concentrations as described above. See, FIGS. 1A-1C.
EC50 values of compounds 18-103 were obtained using OVCAR8 cells. See, Table 4.
(Cellular ATP, detected with luciferase, serves as a proxy for viable cell number.)

Sequence of PARP-1 (P09874 whole entry): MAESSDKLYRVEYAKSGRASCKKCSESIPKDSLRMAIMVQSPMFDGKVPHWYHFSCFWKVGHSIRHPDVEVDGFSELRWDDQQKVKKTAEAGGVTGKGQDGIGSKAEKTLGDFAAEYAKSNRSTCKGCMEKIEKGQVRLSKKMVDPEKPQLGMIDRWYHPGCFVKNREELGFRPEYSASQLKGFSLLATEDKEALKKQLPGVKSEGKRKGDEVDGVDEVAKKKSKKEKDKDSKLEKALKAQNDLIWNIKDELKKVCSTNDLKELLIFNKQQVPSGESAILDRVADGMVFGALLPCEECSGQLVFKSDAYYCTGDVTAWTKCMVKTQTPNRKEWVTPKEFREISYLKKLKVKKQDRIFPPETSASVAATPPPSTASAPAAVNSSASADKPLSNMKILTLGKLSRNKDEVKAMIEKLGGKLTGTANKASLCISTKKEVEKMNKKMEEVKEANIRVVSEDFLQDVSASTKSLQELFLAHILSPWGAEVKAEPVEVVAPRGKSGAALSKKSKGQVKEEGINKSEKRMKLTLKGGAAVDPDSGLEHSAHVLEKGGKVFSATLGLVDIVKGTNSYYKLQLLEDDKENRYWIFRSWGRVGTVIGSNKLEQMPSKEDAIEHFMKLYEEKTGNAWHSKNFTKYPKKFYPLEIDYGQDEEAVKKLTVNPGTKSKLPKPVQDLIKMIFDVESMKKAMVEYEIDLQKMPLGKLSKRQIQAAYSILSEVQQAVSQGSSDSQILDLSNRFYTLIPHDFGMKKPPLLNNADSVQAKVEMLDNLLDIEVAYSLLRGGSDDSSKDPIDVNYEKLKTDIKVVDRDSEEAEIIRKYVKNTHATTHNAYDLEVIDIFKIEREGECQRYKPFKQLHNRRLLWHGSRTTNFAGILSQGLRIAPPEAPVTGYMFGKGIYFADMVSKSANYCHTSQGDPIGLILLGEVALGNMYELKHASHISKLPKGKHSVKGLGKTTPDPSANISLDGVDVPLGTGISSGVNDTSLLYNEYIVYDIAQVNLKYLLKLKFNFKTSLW

Consider `CC(C)(C)OC(=O)N1CCC2(CCN(C(=O)c3cc(Cc4n[nH]c(=O)c5ccccc45)ccc3F)C2)C1` (stereo not drawn) [Compound 15b, Tert-butyl 7-(2-fluoro-5-((4-oxo-3,4-dihydrophthalazin-1-yl)methyl)benzoyl)-2,7-diazaspiro[4.4]nonane-2-carboxylate], for which the EC50 in assay [1] is 23.4 µM; on PARP-1, 4.4 µM; in the assay with MEF WT cells (Mus musculus) it was 17.2 µM; in assay [2], 46.4 µM. Moreover, on PARP-1 (10c vs 10a, 15b vs 15a), the “fold lower PARP-1 affinity compared to the methylene congener” value is given as around 85 fold. The half-inhibitory concentration (IC50) at PARP-1 was 4.4 µM.

With `O=C(c1cc(Cc2n[nH]c(=O)c3ccccc23)ccc1F)N1CCC2(CCCCC2)C1` [Compound 16a, 4-(4-Fluoro-3-(2-azaspiro[4.5]decane-2-carbonyl)benzyl)phthalazin-1(2H)-one], the 50% effective concentration (EC50) in assay [1] was found to be 46.8 µM; on PARP-1 it was 0.1414 ± 0.0013 µM; in the assay with MEF WT cells (Mus musculus) it was 42.7 µM; in assay [2], 51.6 µM.

With `O=C(c1cc(Cc2n[nH]c(=O)c3ccccc23)ccc1F)N1CCC2(CC1)CCN(C(=O)C1CC1)CC2` [Compound 17d, 4-(3-(9-(Cyclopropanecarbonyl)-3,9-diazaspiro[5.5]undecane-3-carbonyl)-4-fluorobenzyl)phthalazin-1(2H)-one], the EC50 was 21.6 µM in assay [1], 0.0443 µM on PARP-1, 24.8 µM in the assay on MEF WT cells (Mus musculus) and 49.7 µM in assay [2]. Also, on PARP-1, the IC50 turned out to be 0.0443 µM.

Take `CC(C)(C)OC(=O)N1CCC2(CC1)CCN(C(=O)c1cc(Cc3n[nH]c(=O)c4ccccc34)ccc1F)C2` [Compound 16b, Tert-butyl 2-(2-fluoro-5-((4-oxo-3,4-dihydrophthalazin-1-yl)methyl)benzoyl)-2,8-diazaspiro[4.5]decane-8-carboxylate]: the 50% effective concentration (EC50) in assay [1] was 31.6 µM; at PARP-1, 1.1 µM; with MEF WT cells (Mus musculus), 9.4 µM; in assay [2] it was 45.9 µM.

Consider `CC(C)(C)OC(=O)N1CCC2(CC1)CCN(C(=O)c1cc(Cc3n[nH]c(=O)c4ccccc34)ccc1F)CC2` [Compound 17b, Tert-butyl 9-(2-fluoro-5-((4-oxo-3,4-dihydrophthalazin-1-yl)methyl)benzoyl)-3,9-diazaspiro[5.5]undecane-3-carboxylate], for which the 50% effective concentration (EC50) in assay [1] was 19.2 µM; at PARP-1, 0.453 µM; in the assay with MEF WT cells (Mus musculus) it was 16.9 µM; in assay [2] it was 43.4 µM. Moreover, the half-inhibitory concentration (IC50) at PARP-1 worked out at 0.453 µM.

Take `CC(C)(C)OC(=O)N1CCC2(CC1)CN(C(=O)c1cc(Cc3n[nH]c(=O)c4ccccc34)ccc1F)C2` [Compound 12b, Tert-butyl 2-(2-fluoro-5-((4-oxo-3,4-dihydrophthalazin-1-yl)methyl)benzoyl)-2,7-diazaspiro[3.5]nonane-7-carboxylate]: the 50% effective concentration (EC50) is 41.5 µM in assay [1]; 3.12 µM on PARP-1; around 23 µM with MEF WT cells (Mus musculus); 23.4 µM in the assay with MEF WT cells; 49.2 µM in assay [2]. Also, on PARP-1, the half-inhibitory concentration (IC50) turned out to be 3.12 µM.

Consider `COC1CCC(NC(=O)c2cc(Cc3n[nH]c(=O)c4ccccc34)ccc2F)CC1` (stereo not drawn) [Compound 22], for which the 50% effective concentration (EC50) in the assay on OVCAR8 cells was found to be 16.2 ± 1.2 µM; at PARP-1 it was 0.2263 ± 0.0011 µM.

In the case of `O=C(c1cc(Cc2n[nH]c(=O)c3ccccc23)ccc1F)N1CC2(CCCCC2)C1` [Compound 12a, 4-(4-Fluoro-3-(2-azaspiro[3.5]nonane-2-carbonyl)benzyl)phthalazin-1(2H)-one], the EC50 in assay [1] came out at 39.9 µM; on PARP-1, 0.0654 ± 0.0015 µM; with MEF WT cells (Mus musculus), 25.6 µM; in assay [2] it was 48.3 µM.

`O=C(c1cc(Cc2n[nH]c(=O)c3ccccc23)ccc1F)N1CCCC(OCCF)CC1` (stereo not drawn) [Compound 33, 4-(4-fluoro-3-(4-(2-fluoroethoxy)azepane-1-carbonyl)benzyl)phthalazin-1(2H)-one]: the values for the EC50 in the assay with OVCAR8 cells and on PARP-1 were 11.3 ± 1.3 µM and 0.00562 ± 0.0011 µM, respectively.

Consider `O=C(c1cc(Cc2n[nH]c(=O)c3ccccc23)ccc1F)N1CC[C@@H](OCCF)C1` [Compound 28, (R)-4-(4-fluoro-3-(3-(2-fluoroethoxy)pyrrolidine-1-carbonyl)benzyl)phthalazin-1(2H)-one], for which the concentration for a half-maximal effect (EC50) amounted to 30.9 ± 1.2 µM in the assay on OVCAR8 cells and 0.0101 ± 0.0011 µM on PARP-1.

Take `O=C(c1ccc(F)cc1)N1CC2(C1)CN(C(=O)c1cc(Cc3n[nH]c(=O)c4ccccc34)ccc1F)C2` [46 (X = F)]: the EC50 with OVCAR8 cells came out at 36 µM; on PARP-1 it was 0.0218 µM.

Turning to `CO[C@H]1C[C@@H](NC(=O)c2cc(Cc3n[nH]c(=O)c4ccccc34)ccc2F)C1` [Compound 19], the concentration giving a half-maximal response (EC50) amounted to 17.1 ± 1.2 µM in the assay with OVCAR8 cells and 0.0208 ± 0.0011 µM on PARP-1.

Regarding `O=C(c1cc(Cc2n[nH]c(=O)c3ccccc23)ccc1F)N1CC(OCCF)C1` [Compound 26, 4-(4-fluoro-3-(3-(2-fluoroethoxy)azetidine-1-carbonyl)benzyl)phthalazin-1(2H)-one], the figures for the EC50 with OVCAR8 cells and at PARP-1 were 74.1 ± 1.3 µM and 0.00754 ± 0.0011 µM, respectively.

Regarding `O=C(c1cc(Cc2n[nH]c(=O)c3ccccc23)ccc1F)N1CCC(OCCF)CC1` [Compound 31, 4-(4-fluoro-3-(4-(2-fluoroethoxy)piperidine-1-carbonyl)benzyl)phthalazin-1(2H)-one], the EC50 in the assay with OVCAR8 cells came to 17.1 ± 1.2 µM; on PARP-1, 0.00395 ± 0.0012 µM.

A word on the EC50: it is the concentration needed to bring the measured effect to its halfway point. Lower therefore signals an effect from little substance. The term IC50 denotes the concentration that inhibits the measured activity by half. Higher therefore signals weaker potency.
